The structures appear in SMILES notation.

The target in the assay is T1, Diacylglycerol O-acyltransferase 2 (Homo sapiens, UniProt Q96PD7).
T1 sequence (Q96PD7 whole entry): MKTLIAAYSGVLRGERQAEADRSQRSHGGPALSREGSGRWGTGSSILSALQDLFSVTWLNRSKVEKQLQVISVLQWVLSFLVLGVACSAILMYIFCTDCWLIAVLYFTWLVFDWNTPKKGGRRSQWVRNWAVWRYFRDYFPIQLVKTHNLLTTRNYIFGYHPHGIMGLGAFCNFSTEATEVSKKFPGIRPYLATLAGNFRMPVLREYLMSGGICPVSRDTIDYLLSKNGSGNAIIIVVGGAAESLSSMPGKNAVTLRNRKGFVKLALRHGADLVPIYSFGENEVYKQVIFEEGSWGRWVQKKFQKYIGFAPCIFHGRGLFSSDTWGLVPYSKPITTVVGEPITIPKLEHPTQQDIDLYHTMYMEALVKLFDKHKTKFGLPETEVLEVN
Description: Enzymatic Activity Assay: DGAT2 activity was determined by measuring the amount of enzymatic product triolein (1,2,3-Tri(cis-9-octadecenoyl)glycerol) using the membrane prep mentioned above. The assay was carried out in deep well 384 plates in a final volume of 40 μL at room temperature. The assay mixture contained the following: assay buffer (100 mM Tris.Cl, pH 7.0, 20 mM MgCl2, 5% ethanol), 25 μM of diolein, 10 μM of oleoyl-CoA and 10 ng/μL of DGAT2 membrane.
As for `COc1cccc(-c2ccc(CNC(=O)[C@H]3C[C@@H]3c3nc(C)no3)c3c2CCN(C(=O)C(C)(C)O)C3)c1` (relative stereo), the IC50 amounted to 723 nM.
The value for `COc1cccc(-c2ccc(CNC(=O)[C@@H]3C[C@H]3c3ccccc3)c3c2CCN(C(=O)NC(C)C(C)C)C3)c1` (mixture of isomers) was 23.8 nM; that for `Cc1noc([C@@H]2C[C@H]2C(=O)NCc2ccc(-c3cncc(C(C)(C)O)c3)c3c2CN(C(=O)NC(C)(C)C)CC3)n1` (relative stereo) was 512 nM; that for `COC(=O)c1cccc(-c2ccc(CNC(=O)C3CC3c3ccccc3)c3c2CCN(C(=O)c2ccccn2)C3)c1` (mixture of isomers) was 249 nM.
The value for `Cc1noc([C@H]2C[C@@H]2C(=O)NCc2ccc(-c3cccc(C(F)(F)F)c3)c3c2CN(C(=O)NC(C)(C)C)CC3)n1` (relative stereo) was 5.8 nM.
The value for `COC(=O)c1cccc(-c2ccc(CNC(=O)C3CC3c3ccccc3)c3c2CCN(Cc2ccncc2)C3)c1` (mixture of isomers) was 2410 nM; that for `CCCCC(CC)CNC(=O)N1CCc2c(-c3cccc(OC)c3)ccc(CNC(=O)[C@@H]3C[C@H]3c3ccccc3)c2C1` (relative stereo) was 249 nM.
`COC(=O)c1cccc(-c2ccc(CNC(=O)C3CC3c3ccccc3)c3c2CCN(Cc2cc(C)n(C4CC4)c2C)C3)c1` (mixture of isomers): the IC50 stood at 2800 nM.
Then `CCCNC(=O)N1CCc2c(-c3cccc(OC)c3)ccc(CNC(=O)[C@@H]3C[C@H]3c3nc(C)no3)c2C1` (relative stereo), with 8.3 nM.
Then `COc1cccc(-c2ccc(CNC(=O)[C@@H]3C[C@H]3c3ccccc3)c3c2CCN(C(=O)NC2CC2)C3)c1` (mixture of isomers), with 22.6 nM.
